From patent US20240400577A1, “MODULATORS OF PROTEIN KINASES” (VIBLIOME THERAPEUTICS, LLC, priority 2021, published 2024)

Key:
Assay in all cases: Kinase panel enzymatic inhibition assay (Nanosyn)
Assay type in all cases: biochemical
Abl1 = molecular target: T1, Abl1 (Homo sapiens, UniProt P00519); settings: compound 5 μM; ATP at Km; 30-minute pre-incubation
T1 construct: purchased Nanosyn (contract screening)
Description: (§1) The disclosed compounds were tested for activity against a panel of at least 300 kinases. Kinase panel screening was conducted by Nanosyn (Santa Clara, CA 95051) using an enzymatic inhibition assay accepted as valid by those skilled in the art (e.g., the Caliper LabChip® mobility shift assay, an ADP detection assay, or time-resolved fluorescence detection technology. Compounds were screened at a concentration of 5 μM using an ATP concentration at the Km for each of the respective kinases and a 30-minute pre-incubation time-point.
(§2) In Table 1 and 2, kinase inhibition is classified by: A=95% or greater, B=90%-94%, C=80%-89%, and D=79% and less with a compound concentration of 5 JIM. In Table 3 and 4, kinase inhibition is reported in terms of IC50 values corresponding to A=less than 500 nm, B=500 nm to less than 1 μM, C=1 μM to less than 10 μM, and D=10 μM or greater using a compound concentration of 5 μM.

BRAF = molecular target: T2, BRAF (Homo sapiens, UniProt P15056); settings: compound 5 μM; ATP at Km; 30-minute pre-incubation
T2 construct: purchased Nanosyn (contract screening)
Description: as §1, §2

CLK4 = molecular target: T3, CLK4 (Homo sapiens, UniProt Q9HAZ1); settings: compound 5 μM; ATP at Km; 30-minute pre-incubation
T3 construct: purchased Nanosyn (contract screening)
T3 sequence (Q9HAZ1 whole entry): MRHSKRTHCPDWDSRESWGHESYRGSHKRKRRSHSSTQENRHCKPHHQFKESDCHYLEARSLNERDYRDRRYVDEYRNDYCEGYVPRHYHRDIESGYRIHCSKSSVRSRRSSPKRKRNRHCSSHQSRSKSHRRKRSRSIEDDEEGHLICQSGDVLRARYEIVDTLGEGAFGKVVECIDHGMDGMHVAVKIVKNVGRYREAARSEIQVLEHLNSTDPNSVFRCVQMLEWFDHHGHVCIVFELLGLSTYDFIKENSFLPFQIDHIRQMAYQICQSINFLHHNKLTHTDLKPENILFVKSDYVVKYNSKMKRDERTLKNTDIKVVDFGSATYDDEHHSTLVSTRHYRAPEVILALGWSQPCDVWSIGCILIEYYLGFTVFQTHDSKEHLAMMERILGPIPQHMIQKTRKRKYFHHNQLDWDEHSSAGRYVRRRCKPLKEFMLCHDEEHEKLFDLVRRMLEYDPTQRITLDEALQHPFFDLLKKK
Description: as §1, §2

COT1 = molecular target: T4, COT1 (Homo sapiens, UniProt P41279); settings: compound 5 μM; ATP at Km; 30-minute pre-incubation
T4 construct: purchased Nanosyn (contract screening)
Description: as §1, §2

FGR = molecular target: T5, FGR (Homo sapiens, UniProt P09769); settings: compound 5 μM; ATP at Km; 30-minute pre-incubation
T5 construct: purchased Nanosyn (contract screening)
T5 sequence (P09769 whole entry): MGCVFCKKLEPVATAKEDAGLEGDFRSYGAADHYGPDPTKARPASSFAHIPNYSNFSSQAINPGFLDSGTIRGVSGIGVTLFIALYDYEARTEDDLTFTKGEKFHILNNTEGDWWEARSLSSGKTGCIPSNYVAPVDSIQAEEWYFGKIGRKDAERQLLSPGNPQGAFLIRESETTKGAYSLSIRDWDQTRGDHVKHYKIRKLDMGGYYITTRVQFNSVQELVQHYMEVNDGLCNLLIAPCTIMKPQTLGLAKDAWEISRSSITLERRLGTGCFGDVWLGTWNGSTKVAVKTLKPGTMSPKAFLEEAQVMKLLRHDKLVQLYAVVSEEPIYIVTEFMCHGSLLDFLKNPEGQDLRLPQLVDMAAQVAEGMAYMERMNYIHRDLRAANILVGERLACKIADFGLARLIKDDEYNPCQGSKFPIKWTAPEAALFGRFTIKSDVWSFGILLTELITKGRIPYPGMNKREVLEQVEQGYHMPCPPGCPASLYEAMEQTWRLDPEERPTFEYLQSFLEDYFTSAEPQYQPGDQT
Description: as §1, §2

FYN = molecular target: T6, FYN (Homo sapiens, UniProt P06241); settings: compound 5 μM; ATP at Km; 30-minute pre-incubation
T6 construct: purchased Nanosyn (contract screening)
T6 sequence (P06241 whole entry): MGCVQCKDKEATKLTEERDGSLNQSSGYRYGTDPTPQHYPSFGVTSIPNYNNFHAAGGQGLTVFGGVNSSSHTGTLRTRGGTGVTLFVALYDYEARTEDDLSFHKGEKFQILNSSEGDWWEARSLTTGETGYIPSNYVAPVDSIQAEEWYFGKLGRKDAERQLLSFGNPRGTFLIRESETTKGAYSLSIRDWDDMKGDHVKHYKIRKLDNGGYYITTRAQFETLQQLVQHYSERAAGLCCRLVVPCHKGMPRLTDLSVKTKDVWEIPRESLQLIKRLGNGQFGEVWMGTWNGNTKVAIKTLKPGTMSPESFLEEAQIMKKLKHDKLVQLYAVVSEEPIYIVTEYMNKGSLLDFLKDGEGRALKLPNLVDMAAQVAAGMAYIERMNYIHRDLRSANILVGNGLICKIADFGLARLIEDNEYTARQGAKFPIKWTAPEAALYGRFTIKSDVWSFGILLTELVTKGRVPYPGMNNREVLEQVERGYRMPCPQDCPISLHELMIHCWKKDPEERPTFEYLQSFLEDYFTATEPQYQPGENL
Description: as §1, §2

HGK = molecular target: T7, HGK (Homo sapiens, UniProt O95819); settings: compound 5 μM; ATP at Km; 30-minute pre-incubation
T7 construct: purchased Nanosyn (contract screening)
T7 sequence (O95819 whole entry): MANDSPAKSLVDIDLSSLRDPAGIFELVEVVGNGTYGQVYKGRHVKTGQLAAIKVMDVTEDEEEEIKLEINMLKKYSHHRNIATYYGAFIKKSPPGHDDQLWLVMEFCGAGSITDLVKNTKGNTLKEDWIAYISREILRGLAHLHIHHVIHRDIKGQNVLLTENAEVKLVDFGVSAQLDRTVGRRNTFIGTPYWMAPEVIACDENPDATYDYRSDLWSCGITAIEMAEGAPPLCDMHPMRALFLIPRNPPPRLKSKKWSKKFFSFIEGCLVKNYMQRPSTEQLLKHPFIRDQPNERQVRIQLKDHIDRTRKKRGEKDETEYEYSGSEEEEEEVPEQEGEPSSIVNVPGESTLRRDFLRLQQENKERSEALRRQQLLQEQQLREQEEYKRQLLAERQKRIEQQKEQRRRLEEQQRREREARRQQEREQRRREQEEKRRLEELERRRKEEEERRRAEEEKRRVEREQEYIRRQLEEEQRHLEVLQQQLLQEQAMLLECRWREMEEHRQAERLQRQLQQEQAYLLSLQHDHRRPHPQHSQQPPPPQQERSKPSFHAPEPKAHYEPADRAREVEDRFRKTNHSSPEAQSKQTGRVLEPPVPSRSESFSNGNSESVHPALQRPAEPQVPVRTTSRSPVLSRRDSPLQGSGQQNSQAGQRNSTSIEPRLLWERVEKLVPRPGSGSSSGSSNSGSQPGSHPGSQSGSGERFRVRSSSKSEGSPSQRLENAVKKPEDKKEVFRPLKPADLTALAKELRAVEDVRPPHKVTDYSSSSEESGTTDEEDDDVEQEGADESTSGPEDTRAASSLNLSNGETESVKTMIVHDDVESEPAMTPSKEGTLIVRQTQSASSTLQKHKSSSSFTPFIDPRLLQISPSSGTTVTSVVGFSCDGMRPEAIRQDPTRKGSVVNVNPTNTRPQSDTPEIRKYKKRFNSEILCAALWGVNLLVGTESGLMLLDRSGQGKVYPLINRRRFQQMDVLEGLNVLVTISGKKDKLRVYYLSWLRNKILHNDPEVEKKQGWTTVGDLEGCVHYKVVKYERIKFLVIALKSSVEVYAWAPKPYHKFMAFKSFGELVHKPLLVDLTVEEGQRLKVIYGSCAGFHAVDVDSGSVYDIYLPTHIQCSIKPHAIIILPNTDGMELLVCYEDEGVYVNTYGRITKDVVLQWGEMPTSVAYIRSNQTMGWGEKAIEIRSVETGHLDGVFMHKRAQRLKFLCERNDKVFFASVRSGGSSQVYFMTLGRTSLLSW
Description: as §1, §2

LCK = molecular target: T8, LCK (Homo sapiens, UniProt P06239); settings: ATP at Km, 30-minute pre-incubation; for inhibition at 5 µM: compound 5 μM; for IC50: read-out: kinase inhibition in terms of IC50, LCK
T8 construct: purchased Nanosyn (contract screening)
Description: as §1, §2

PDGFRa = molecular target: T9, PDGFRa (Homo sapiens, UniProt P16234); settings: compound 5 μM; ATP at Km; 30-minute pre-incubation
T9 construct: Nanosyn (contract laboratory that ran the panel)
T9 sequence (P16234 24-1089): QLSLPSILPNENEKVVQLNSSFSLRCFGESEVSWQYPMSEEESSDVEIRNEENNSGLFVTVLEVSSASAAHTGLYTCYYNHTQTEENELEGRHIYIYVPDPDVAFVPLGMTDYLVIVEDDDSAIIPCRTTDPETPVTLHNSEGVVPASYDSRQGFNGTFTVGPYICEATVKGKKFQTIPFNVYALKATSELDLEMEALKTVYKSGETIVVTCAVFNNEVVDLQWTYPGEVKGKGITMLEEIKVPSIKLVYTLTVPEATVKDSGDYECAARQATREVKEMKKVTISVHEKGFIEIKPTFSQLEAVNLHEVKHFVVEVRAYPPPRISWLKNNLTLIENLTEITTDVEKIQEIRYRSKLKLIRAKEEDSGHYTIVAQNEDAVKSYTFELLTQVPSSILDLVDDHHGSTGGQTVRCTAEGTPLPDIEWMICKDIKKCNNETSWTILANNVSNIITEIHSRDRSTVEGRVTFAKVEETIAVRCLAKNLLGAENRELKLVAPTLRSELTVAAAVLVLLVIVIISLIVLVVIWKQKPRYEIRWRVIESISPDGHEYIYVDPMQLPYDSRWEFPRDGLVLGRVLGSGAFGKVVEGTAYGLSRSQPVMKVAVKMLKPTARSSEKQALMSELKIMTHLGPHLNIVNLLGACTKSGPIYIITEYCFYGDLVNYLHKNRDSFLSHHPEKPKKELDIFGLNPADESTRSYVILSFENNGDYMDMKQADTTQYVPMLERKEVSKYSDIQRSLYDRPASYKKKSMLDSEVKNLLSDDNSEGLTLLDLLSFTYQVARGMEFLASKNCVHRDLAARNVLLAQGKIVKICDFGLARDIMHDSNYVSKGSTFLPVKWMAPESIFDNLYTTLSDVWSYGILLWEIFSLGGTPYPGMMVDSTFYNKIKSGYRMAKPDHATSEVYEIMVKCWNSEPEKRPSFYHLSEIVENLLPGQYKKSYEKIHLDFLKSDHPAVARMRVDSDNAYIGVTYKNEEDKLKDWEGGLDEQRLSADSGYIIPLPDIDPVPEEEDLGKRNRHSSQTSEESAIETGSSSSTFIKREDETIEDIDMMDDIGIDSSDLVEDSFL
Description: as §1, §2

SPHK2 = molecular target: T10, SPHK2 (Homo sapiens, UniProt Q9NRA0); settings: compound 5 μM; ATP at Km; 30-minute pre-incubation
T10 construct: Nanosyn (contract laboratory that ran the panel)
T10 sequence (Q9NRA0 1-654): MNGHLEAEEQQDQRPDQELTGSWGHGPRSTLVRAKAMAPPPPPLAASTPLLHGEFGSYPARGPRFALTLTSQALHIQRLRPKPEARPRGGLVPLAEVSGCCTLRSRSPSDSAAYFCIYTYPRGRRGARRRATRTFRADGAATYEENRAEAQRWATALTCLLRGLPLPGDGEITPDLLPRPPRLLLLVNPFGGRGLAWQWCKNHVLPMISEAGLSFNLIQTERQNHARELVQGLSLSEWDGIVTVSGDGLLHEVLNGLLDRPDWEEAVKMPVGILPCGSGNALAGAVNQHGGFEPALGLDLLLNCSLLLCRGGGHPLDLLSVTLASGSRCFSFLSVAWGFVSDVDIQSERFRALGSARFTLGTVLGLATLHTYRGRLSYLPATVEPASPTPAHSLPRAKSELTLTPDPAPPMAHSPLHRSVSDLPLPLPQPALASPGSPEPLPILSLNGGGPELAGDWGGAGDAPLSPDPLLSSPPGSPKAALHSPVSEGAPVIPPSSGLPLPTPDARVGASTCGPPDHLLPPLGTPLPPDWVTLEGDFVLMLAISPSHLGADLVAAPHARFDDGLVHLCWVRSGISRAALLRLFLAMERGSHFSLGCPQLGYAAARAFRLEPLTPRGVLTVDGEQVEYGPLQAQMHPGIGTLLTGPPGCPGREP
Description: as §1, §2

TAOK2 = molecular target: T11, TAOK2 (Homo sapiens, UniProt Q9UL54); settings: compound 5 μM; ATP at Km; 30-minute pre-incubation
T11 construct: Nanosyn (contract laboratory that ran the panel)
T11 sequence (Q9UL54 1-1235): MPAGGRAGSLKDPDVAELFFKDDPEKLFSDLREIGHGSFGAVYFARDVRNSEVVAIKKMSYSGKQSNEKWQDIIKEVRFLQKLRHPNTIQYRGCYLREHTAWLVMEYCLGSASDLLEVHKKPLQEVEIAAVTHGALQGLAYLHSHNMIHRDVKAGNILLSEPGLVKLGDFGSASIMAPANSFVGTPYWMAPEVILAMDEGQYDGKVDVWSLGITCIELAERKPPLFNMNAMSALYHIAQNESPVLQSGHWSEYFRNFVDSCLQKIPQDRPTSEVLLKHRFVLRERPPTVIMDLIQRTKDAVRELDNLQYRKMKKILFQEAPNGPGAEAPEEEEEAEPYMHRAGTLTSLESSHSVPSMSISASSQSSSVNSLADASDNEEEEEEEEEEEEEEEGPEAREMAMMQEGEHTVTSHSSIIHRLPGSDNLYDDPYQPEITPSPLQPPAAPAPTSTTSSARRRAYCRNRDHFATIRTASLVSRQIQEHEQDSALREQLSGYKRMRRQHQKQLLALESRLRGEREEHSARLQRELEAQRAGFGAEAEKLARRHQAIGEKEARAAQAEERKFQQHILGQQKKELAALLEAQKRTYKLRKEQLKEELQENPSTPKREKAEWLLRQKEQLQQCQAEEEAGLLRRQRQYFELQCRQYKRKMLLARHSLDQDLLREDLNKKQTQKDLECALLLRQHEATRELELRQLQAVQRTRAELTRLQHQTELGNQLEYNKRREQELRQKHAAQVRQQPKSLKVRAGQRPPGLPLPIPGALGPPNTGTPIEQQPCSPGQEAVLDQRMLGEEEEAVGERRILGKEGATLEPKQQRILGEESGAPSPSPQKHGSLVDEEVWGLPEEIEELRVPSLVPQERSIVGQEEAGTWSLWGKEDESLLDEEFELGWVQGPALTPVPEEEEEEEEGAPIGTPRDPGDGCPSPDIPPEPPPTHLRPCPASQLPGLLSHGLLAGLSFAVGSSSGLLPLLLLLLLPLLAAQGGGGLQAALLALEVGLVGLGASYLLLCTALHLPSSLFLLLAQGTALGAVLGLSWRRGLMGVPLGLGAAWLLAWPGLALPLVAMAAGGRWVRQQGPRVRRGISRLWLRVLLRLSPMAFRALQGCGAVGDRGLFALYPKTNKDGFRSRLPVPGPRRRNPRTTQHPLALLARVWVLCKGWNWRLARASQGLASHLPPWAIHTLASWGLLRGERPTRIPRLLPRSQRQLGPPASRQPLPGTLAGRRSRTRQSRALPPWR
Description: as §1, §2

p38a = molecular target: T12, p38a (Homo sapiens, UniProt Q16539); settings: compound 5 μM; ATP at Km; 30-minute pre-incubation
T12 construct: Nanosyn (contract laboratory that ran the panel)
Description: as §1, §2

T1 sequence (P00519 whole entry): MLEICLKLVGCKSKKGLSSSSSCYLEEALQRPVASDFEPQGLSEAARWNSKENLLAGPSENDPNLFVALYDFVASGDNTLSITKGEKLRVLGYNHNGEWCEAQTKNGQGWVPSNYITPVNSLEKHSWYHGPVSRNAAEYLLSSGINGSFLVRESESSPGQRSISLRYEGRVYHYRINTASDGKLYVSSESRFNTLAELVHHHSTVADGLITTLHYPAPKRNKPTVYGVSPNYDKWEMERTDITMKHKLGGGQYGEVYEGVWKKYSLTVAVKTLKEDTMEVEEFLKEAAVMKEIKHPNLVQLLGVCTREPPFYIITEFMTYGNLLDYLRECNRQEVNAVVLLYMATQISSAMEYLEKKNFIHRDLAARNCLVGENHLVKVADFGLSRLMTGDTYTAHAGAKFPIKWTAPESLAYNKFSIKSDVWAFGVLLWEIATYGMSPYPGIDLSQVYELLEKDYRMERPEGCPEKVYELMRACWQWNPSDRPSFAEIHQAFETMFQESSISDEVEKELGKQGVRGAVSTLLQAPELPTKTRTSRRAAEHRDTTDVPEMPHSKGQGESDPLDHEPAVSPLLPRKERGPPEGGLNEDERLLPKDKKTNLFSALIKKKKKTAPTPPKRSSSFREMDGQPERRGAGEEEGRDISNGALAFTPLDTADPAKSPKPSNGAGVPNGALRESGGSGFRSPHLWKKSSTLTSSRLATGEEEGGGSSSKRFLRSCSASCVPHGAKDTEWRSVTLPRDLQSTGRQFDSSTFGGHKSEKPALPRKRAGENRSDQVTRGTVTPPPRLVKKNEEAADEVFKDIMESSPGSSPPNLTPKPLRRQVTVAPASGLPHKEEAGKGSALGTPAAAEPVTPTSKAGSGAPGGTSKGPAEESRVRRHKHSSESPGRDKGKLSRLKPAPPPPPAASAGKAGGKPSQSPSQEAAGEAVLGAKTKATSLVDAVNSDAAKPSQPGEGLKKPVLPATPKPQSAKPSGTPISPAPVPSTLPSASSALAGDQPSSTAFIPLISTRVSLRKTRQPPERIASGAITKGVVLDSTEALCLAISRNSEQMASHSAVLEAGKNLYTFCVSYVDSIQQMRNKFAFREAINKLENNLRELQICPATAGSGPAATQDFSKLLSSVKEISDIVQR

Row | SMILES | inhibition at 5 µM (Abl1) [%] | inhibition at 5 µM (BRAF) [%] | inhibition at 5 µM (CLK4) [%] | inhibition at 5 µM (COT1) [%] | inhibition at 5 µM (FGR) [%] | inhibition at 5 µM (FYN) [%] | inhibition at 5 µM (HGK) [%] | inhibition at 5 µM (LCK) [%] | inhibition at 5 µM (PDGFRa) [%] | inhibition at 5 µM (SPHK2) [%] | inhibition at 5 µM (TAOK2) [%] | inhibition at 5 µM (p38a) [%] | IC50 (LCK) [nM]
1 | Cc1ccc(NC(=O)c2cc(S(C)(=O)=O)n(-c3ccc(F)cc3)n2)cc1Nc1ccc2ncn(C)c(=O)c2c1 [Ex4, 1-(4-fluorophenyl)-N-(4-methyl-3-((3-methyl-4-oxo-3,4-dihydroquinazolin-6-yl)amino)phenyl)-5-(methylsulfonyl)-1H-pyrazole-3-carboxamide] | < 79 | ≥ 95 | < 79 | < 79 | < 79 | < 79 | < 79 | < 79 | < 79 | < 79 | < 79 | 80 to 89 | 
2 | Cc1ccc(NC(=O)c2cc([S+](C)[O-])n(-c3ccc(F)cc3)n2)cc1Nc1ccc2ncn(C)c(=O)c2c1 (stereo not drawn) [Ex5, 1-(4-fluorophenyl)-N-(4-methyl-3-((3-methyl-4-oxo-3,4-dihydroquinazolin-6-yl)amino)phenyl)-5-(methylsulfinyl)-1H-pyrazole-3-carboxamide] | < 79 | ≥ 95 | < 79 | < 79 | < 79 | < 79 | < 79 | 90 to 94 | < 79 | < 79 | < 79 | ≥ 95 | 
3 | Cc1ccc(NC(=O)c2cc([S+](C)[O-])n(-c3ccc(F)cc3)n2)cc1C#Cc1cnc2cccnn12 (stereo not drawn) [Ex6, 1-(4-fluorophenyl)-N-(3-(imidazo[1,2-b]pyridazin-3-ylethynyl)-4-methylphenyl)-5-(methylsulfinyl)-1H-pyrazole-3-carboxamide] | < 79 | ≥ 95 | < 79 | < 79 | 80 to 89 | ≥ 95 | < 79 | ≥ 95 | ≥ 95 | < 79 | < 79 | 90 to 94 | 
4 | CNC(=O)c1cc(Oc2ccc(F)c(NC(=O)c3cc([S+](C)[O-])n(-c4ccc(F)cc4)n3)c2)ccn1 (stereo not drawn) [Ex7, 4-(4-fluoro-3-(1-(4-fluorophenyl)-5-(methylsulfinyl)-1H-pyrazole-3-carboxamido)phenoxy)-N-methylpicolinamide] | < 79 | 90 to 94 | < 79 | < 79 | < 79 | < 79 | < 79 | < 79 | < 79 | < 79 | < 79 | < 79 | 
5 | CSc1cc(C(=O)Nc2cc(Oc3ccnc(C(=O)NC4CNC4)c3)ccc2F)nn1-c1ccc(F)cc1 [Ex8, N-(azetidin-3-yl)-4-(4-fluoro-3-(1-(4-fluorophenyl)-5-(methylthio)-1H-pyrazole-3-carboxamido)phenoxy)picolinamide] | < 79 | 90 to 94 | 80 to 89 | 90 to 94 | < 79 | < 79 | 80 to 89 | < 79 | < 79 | < 79 | < 79 | < 79 | 
6 | Cc1ccc(NC(=O)c2cc(S(C)(=O)=O)n(-c3ccc(F)cc3)n2)cc1-c1cc(OCCO)nc(N2CCOCC2)c1 [Ex9, 1-(4-fluorophenyl)-N-(3-(2-(2-hydroxyethoxy)-6-morpholinopyridin-4-yl)-4-methylphenyl)-5-(methylsulfonyl)-1H-pyrazole-3-carboxamide] | < 79 | ≥ 95 | < 79 | < 79 | < 79 | < 79 | < 79 | < 79 | < 79 | < 79 | ≥ 95 | < 79 | 
7 | Cc1ccc(NC(=O)c2cc([S+](C)[O-])n(-c3ccc(F)cc3)n2)cc1-c1cc(OCCO)nc(N2CCOCC2)c1 (stereo not drawn) [Ex10, 1-(4-fluorophenyl)-N-(3-(2-(2-hydroxyethoxy)-6-morpholinopyridin-4-yl)-4-methylphenyl)-5-(methylsulfinyl)-1H-pyrazole-3-carboxamide] | < 79 | ≥ 95 | < 79 | < 79 | < 79 | < 79 | < 79 | < 79 | < 79 | < 79 | 90 to 94 | < 79 | 
8 | COc1cc2nccc(Oc3ccc(NC(=O)c4cc(S(C)(=O)=O)n(-c5ccc(F)cc5)n4)c(F)c3)c2cc1OC [Ex71, N-(4-((6,7-dimethoxyquinolin-4-yl)oxy)-2-fluorophenyl)-1-(4-fluorophenyl)-5-(methylsulfonyl)-1H-pyrazole-3-carboxamide] |  |  |  |  |  |  |  |  |  |  |  |  | < 500
9 | COc1cc2nccc(Oc3ccc(NC(=O)c4cc(S(C)(=O)=O)n(-c5ccc(F)cc5)n4)cc3)c2cc1OC [Ex72, N-(4-((6,7-dimethoxyquinolin-4-yl)oxy)phenyl)-1-(4-fluorophenyl)-5-(methylsulfonyl)-1H-pyrazole-3-carboxamide] |  |  |  |  |  |  |  |  |  |  |  |  | 500 to 1000
10 | COc1cc2nccc(Oc3ccc(NC(=O)c4cc(S(C)(=O)=O)n(-c5ccc(F)cc5)n4)cc3F)c2cc1OC [Ex73, N-(4-((6,7-dimethoxyquinolin-4-yl)oxy)-3-fluorophenyl)-1-(4-fluorophenyl)-5-(methylsulfonyl)-1H-pyrazole-3-carboxamide] |  |  |  |  |  |  |  |  |  |  |  |  | 500 to 1000
